Assay results taken from patent publication US11046716B2, “Beta-lactamase inhibitors” (priority 2015, dated 2021).
Where two headings read alike, the source gives them in different places.

Assays:
OXA-48 = OXA-48 (UniProt Q6XEC0); test: β-lactamase enzyme inhibition assay, Class D oxacillinase; format: biochemical; conditions: read-out: OXA-48
AmpC = target: T1, AmpC (Enterobacter cloacae, UniProt P05364); test: β-lactamase enzyme inhibition assay, p99 AmpC (nitrocefin substrate); format: biochemical
T1 construct: made in house; host or cells: E. coli BL21(DE3)
T1 sequence (P05364 21-381): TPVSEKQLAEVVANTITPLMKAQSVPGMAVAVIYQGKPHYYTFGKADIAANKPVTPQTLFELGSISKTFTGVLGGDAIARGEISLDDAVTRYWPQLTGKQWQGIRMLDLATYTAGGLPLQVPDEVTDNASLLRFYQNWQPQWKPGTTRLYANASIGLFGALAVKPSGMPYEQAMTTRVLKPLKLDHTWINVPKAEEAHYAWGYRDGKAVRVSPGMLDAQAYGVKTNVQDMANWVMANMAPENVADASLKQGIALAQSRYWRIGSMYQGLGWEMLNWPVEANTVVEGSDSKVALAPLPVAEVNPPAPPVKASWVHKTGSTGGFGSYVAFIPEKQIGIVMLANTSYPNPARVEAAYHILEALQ
Method: (§1) For SHV-5, Kpc-2, p99AmpC and OXA-1 β-lactamases, E. coli BL21(DE3) bacterial cells carrying expression plasmids (expressed as native untagged proteins) for the individual β-lactamases were grown in 1 L of Superbroth (Teknova Inc. Hollister, Calif.) supplemented with 100 μg/ml kanamycin selection and 1×5052 (0.5% glycerol, 0.05% glucose and 0.2% α-lactose) at 35° C. for 18-20 hours. Cells were harvested by centrifugation (4,000×g, 4° C., 20 min), resuspended in 50 ml of 10 mM HEPES pH 7.5 ( 1/20 of the initial volume). The cells were lysed by sonication (5 pulses of 45 seconds) at 45 W on ice. The lysates were clarified by centrifugation at 10,000×g for 40 minutes at 4° C. Samples were diluted 5-fold in 50 mM sodium acetate pH 5.0, stored overnight at 4° C., after which they were centrifuged at 10,000×g for 30 minutes to clarify, and filtered through 0.45 μm filters. The samples were loaded onto a 5 ml Capto S sepharose cation exchange column (GE Healthcare) pre-equilibrated with 50 mM sodium acetate pH 5.0. The column was washed with 5 column volumes of 50 mM sodium acetate pH 5.0 to wash out unbound protein and a linear gradient of NaCl (0 to 500 mM) was used to elute the protein (over 16 CV) from the column. Fractions were assayed for β-lactamase activity using Centa (Calbiochem, Gibbstown, N.J.) or Nitrocefin (EMD Millipore chemicals, Darmstadt, Germany) as a reporter β-lactamase substrate for activity in the isolated fractions. Active fractions were pooled, concentrated and further purified by gel filtration chromatography on a Superdex 75 prep grade gel filtration column (GE Healthcare, Piscataway, N.J.) pre-equilibrated in 50 mM Hepes pH 7.5, 150 mM NaCl. Active fractions were pooled concentrated, quantitated by BCA protein determination (Thermo Scientific, Rockford, Ill.), dialyzed into PBS and frozen at −80° C. in 20% glycerol until use.
(§2) An equal volume of diluted enzyme stock was added, and the plates were incubated at 37° C. for 15 min. Nitrocefin was used as substrate for p99 AmpC, VIM-2 and OXA-1 and dispensed into each well at a final concentration of 100 μM. Absorbance at 486 nm was immediately monitored for 10 min using a Biotek Powerwave XS2 microplate spectrophotometer using the GEN5 software package (Biotek Instruments, Winooski Vt.). In an analogous fashion, imipenem was used as substrate for Kpc-2 and Cefotaxime was used for SHV-5, while changes in absorbance upon hydrolysis of the β-lactam ring were monitored at 300 nm and 260 nm respectively in UV-transparent 96-well microtiter assay plates. Maximum rates of hydrolysis were compared to those in control wells (without inhibitors), and percentages of enzyme inhibition were calculated for each concentration of inhibitor. The concentration of inhibitor needed to reduce the initial rate of hydrolysis of substrate by 50% (IC50) was calculated as the residual activity of β-lactamase at 486 nm using GraFit version 7 kinetics software package (Erithacus Software, Surrey, UK).
(§3) Using the methodology described above, examples of the current invention were evaluated for their ability to inhibit β-lactamase enzymes from all four Ambler classifications (A through D). […] NT=Not tested.

[1] = test system: K. pneumoniae producing the Class D carbapenemase OXA-48; test: Broth microdilution MIC assay with meropenem, K. pneumoniae OXA-48; format: cell-based; conditions: for MIC (μg/mL) of Exemplary Compounds in presence of fixed β-lactams: K. p. 11978 OXA-48: Fixed Mero (meropenem) 4 μg/mL
Excerpt: (§4) To determine the ability of test compounds to potentiate the inhibition of the growth of bacterial strains that produce beta-lactamase enzymes in the presence of a β-lactam antibiotic, classic cell based broth microdilution MIC assays were employed. Six bacteria strains producing beta-lactamase enzymes were used: E. coli expressing the Class A Extended Spectrum Beta-Lactamase (ESBL) CTX-M-15, E. cloacae expressing the Class C P99, K. pneumoniae expressing the Class A carbapenemase KPC-2, P. aeruginosa expressing the Class B carbapenemase VIM-2, K. pneumoniae expressing the class A carbapenemase KPC-2 and the class B carbapenemase VIM-4, and K. pneumoniae producing the Class D carbapenemase OXA-48. The assay was conducted in Cation Adjusted Mueller Hinton Broth (CAMHB, BD #212322, BD Diagnostic Systems, Sparks, Md.). Bacteria strains were grown for 3-5 hours in CAMBH broth. Test compounds (Examples 1-94) were added to a microtiter plate in 2-fold serial dilutions in CAMHB in a final concentration range of 16 μg/mL to 0.125 μg/ml. An overlay of CAMHB containing a Beta-lactam was added to the compounds at a final static concentration of 4 μg/ml. […] In addition to the titration of test compounds the MICs of a panel of control beta-lactams is also tested to ensure the strains are behaving consistently from test to test. Once the test compound and antibiotics are added the plates can be inoculated according to CLSI broth microdilution method. After inoculation the plates are incubated for 16-20 hours at 37° C. then the Minimal Inhibitory Concentration (MIC) of the test compound is determined visually.
(§5) Using the methodology described above, examples of the current invention were evaluated for their ability to inhibit the growth of β-lactamase-producing bacteria in the presence of a β-lactam antibiotic.

SHV-5 = target: T2, SHV-5 (Klebsiella pneumoniae, UniProt P0A3M1); test: β-lactamase enzyme inhibition assay, SHV-5 (cefotaxime substrate); format: biochemical
T2 construct: made in house; host or cells: E. coli BL21(DE3)
T2 sequence (P0A3M1 22-286): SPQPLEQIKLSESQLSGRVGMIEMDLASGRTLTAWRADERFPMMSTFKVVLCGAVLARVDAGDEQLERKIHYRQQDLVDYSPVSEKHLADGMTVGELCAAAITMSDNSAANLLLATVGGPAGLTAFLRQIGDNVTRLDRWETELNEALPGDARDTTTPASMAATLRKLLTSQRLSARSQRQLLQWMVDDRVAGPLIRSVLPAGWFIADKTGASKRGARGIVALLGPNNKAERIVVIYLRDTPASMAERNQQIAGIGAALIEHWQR
Method: as §1, §2, §3

[2] = test system: P. aeruginosa expressing the Class B carbapenemase VIM-2; test: Broth microdilution MIC assay with meropenem, P. aeruginosa VIM-2; format: cell-based; conditions: for MIC (μg/mL) of Exemplary Compounds in presence of fixed β-lactams: P. aerug. 2775 VIM-2: Fixed Mero (meropenem) 4 μg/mL
Excerpt: as §4, §5

KPC-2 = target: T3, KPC-2 (Klebsiella pneumoniae, UniProt Q9F663); test: β-lactamase enzyme inhibition assay, KPC-2 (imipenem substrate); format: biochemical
T3 construct: made in house; host or cells: E. coli BL21(DE3)
T3 sequence (Q9F663 25-293, looked up): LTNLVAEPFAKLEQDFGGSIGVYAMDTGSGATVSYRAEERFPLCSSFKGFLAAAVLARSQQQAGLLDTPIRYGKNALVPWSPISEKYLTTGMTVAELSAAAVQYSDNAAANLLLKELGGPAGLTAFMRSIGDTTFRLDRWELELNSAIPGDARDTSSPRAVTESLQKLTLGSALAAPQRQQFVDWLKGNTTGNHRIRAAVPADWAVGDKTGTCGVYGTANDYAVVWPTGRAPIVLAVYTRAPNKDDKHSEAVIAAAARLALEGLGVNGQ
Method: as §1, §2, §3

[3] = test system: K. pneumoniae expressing the class A carbapenemase KPC-2 and the class B carbapenemase VIM-4; test: Broth microdilution MIC assay with meropenem, K. pneumoniae KPC-2 and VIM-4; format: cell-based; conditions: for MIC (μg/mL) of Exemplary Compounds in presence of fixed β-lactams: K. p. A-1797 KPC-2 VIM-4: Fixed Mero (meropenem) 4 μg/mL
Excerpt: as §4, §5

[4] = test system: E. coli expressing the Class A Extended Spectrum Beta-Lactamase (ESBL) CTX-M-15; test: Broth microdilution MIC assay with ceftazidime, E. coli CTX-M-15; format: cell-based; conditions: Fixed CAZ (ceftazidime) 4 μg/mL; E. coli ESBL4 CTX-M-15
Excerpt: as §4, §5

VIM-2 = target: T4, VIM-2 (Escherichia coli, UniProt Q5U7L7); test: β-lactamase enzyme inhibition assay, VIM-2 (nitrocefin substrate); format: biochemical
T4 construct: made in house; host or cells: E. coli BL21(DE3)
Method: For Vim-2 metallo β-lactamase, the procedure was identical with the following exceptions, first the protein was not pH adjusted to pH 5 with 50 mM sodium acetate, second, the chromatography step was changed to a 5 ml Q sepharose anion exchange column pre-equilibrated with 50 mM Hepes pH 7.5, and elution of the protein was achieved by a linear gradient of NaCl (0-600 mM). Finally, the VIM-2 purification required a second run (3rd step) on the Q sepharose anion exchange column to achieve acceptable purity (>90%).
as §2, §3

[5] = test system: K. pneumoniae expressing the Class A carbapenemase KPC-2; test: Broth microdilution MIC assay with meropenem, K. pneumoniae KPC-2; format: cell-based; conditions: for MIC (μg/mL) of Exemplary Compounds in presence of fixed β-lactams: K. p. 156319 KPC-3: Fixed Mero (meropenem) 4 μg/mL
Excerpt: as §4, §5

[6] = Class A, imipenem substrate, 300 nm, read-out: KPC-2
[7] = Class B, nitrocefin substrate, 486 nm, read-out: VIM-2
[8] = Klebsiella pneumoniae, read-out: MIC alone

| Structure (SMILES) | IC50 (OXA-48) | IC50 (AmpC) | MIC (μg/mL) of Exemplary Compounds in presence of fixed β-lactams: K. p. 11978 OXA-48 [1] | IC50 (SHV-5) | MIC (μg/mL) of Exemplary Compounds in presence of fixed β-lactams: P. aerug. 2775 VIM-2 [2] | IC50 (KPC-2; [6]) | MIC (μg/mL) of Exemplary Compounds in presence of fixed β-lactams: K. p. A-1797 KPC-2 VIM-4 [3] | MIC (μg/mL) of Exemplary Compounds in presence of fixed β-lactams: E. coli ESBL4 CTX-M-15 [4] | IC50 (VIM-2; [7]) | MIC (μg/mL) of Exemplary Compounds in presence of fixed β-lactams: K. p. 156319 KPC-3 [5] | IC50 (KPC-2) | IC50 (VIM-2) | MIC [1, 8] | MIC ([2]; Pseudomonas aeruginosa, read-out: MIC alone) | MIC [3, 8] | MIC [5, 8] |
| --- | --- | --- | --- | --- | --- | --- | --- | --- | --- | --- | --- | --- | --- | --- | --- | --- |
| O=C(Cn1cc(CCO)nn1)N[C@H]1Cc2cccc(C(=O)O)c2OB1O [Example 5, (R)-2-hydroxy-3-(2-(4-(2-hydroxyethyl)-11,2,3-triazol-1-yl)acetamido)-3,4-dihydro-2H-benzo[e][1,2]oxaborinine-8-carboxylic acid] | 100 to 1000 nM | < 100 nM | B (B represents an MIC between 1 and 16 μg/mL inclusive) | < 100 nM | B (B represents an MIC between 1 and 16 μg/mL inclusive) | < 100 nM | B (B represents an MIC between 1 and 16 μg/mL inclusive) | C (C represents an MIC of <1 μg/mL) | 10000 to 100000 nM | B (B represents an MIC between 1 and 16 μg/mL inclusive) |  |  |  |  |  |  |
| NCCc1cn(CC(=O)N[C@H]2Cc3cccc(C(=O)O)c3OB2O)nn1 [Example 6, (R)-3-(2-(4-(2-aminoethyl)-1H-1,2,3-triazol-1-yl)acetamido)-2-hydroxy-3,4-dihydro-2H-benzo[e][1,2]oxaborinine-8-carboxylic acid] | 1000 to 10000 nM | < 100 nM | B (B represents an MIC between 1 and 16 μg/mL inclusive) | 100 to 1000 nM | C (C represents an MIC of <1 μg/mL) | < 100 nM | B (B represents an MIC between 1 and 16 μg/mL inclusive) | C (C represents an MIC of <1 μg/mL) | 1000 to 10000 nM | C (C represents an MIC of <1 μg/mL) |  |  |  |  |  |  |
| C[Si](C)(C)c1cn(CC(=O)N[C@H]2Cc3cccc(C(=O)O)c3OB2O)nn1 [Example 9, (R)-2-hydroxy-3-(2-(4-(trimethylsilyl)-1H-1,2,3-triazol-1-yl)acetamido)-3,4-dihydro-2H-benzo[e][1,2]oxaborinine-8-carboxylic acid] | 100 to 1000 nM | < 100 nM | A (A represents an MIC>16 μg/mL) | < 100 nM |  |  | A (A represents an MIC>16 μg/mL) | B (B represents an MIC between 1 and 16 μg/mL inclusive) |  | A (A represents an MIC>16 μg/mL) | < 100 nM | 1000 to 10000 nM |  |  |  |  |
| CCOC(=O)c1nnn(CC(=O)N[C@H]2Cc3cccc(C(=O)O)c3OB2O)c1C(=O)OCC [Example 11, (R)-3-(2-(4,5-bis(ethoxycarbonyl)-1H-1,2,3-triazol-1-yl)acetamido)-2-hydroxy-3,4-dihydro-2H-benzo[e][1,2]oxaborinine-8-carboxylic acid] | < 100 nM | < 100 nM | A (A represents an MIC>16 μg/mL) | < 100 nM |  | < 100 nM | B (B represents an MIC between 1 and 16 μg/mL inclusive) | B (B represents an MIC between 1 and 16 μg/mL inclusive) | 1000 to 10000 nM | B (B represents an MIC between 1 and 16 μg/mL inclusive) |  |  |  |  |  |  |
| NCC#Cc1c(CN)nnn1CC(=O)N[C@H]1Cc2cccc(C(=O)O)c2OB1O [Example 109, (R)-3-(2-(4-(aminomethyl)-5-(3-aminoprop-1-yn-1-yl)-1H-1,2,3-triazol-1-yl)acetamido)-2-hydroxy-3,4-dihydro-2H-benzo[e][1,2]oxaborinine-8-carboxylic acid] | < 100 nM | 100 to 1000 nM | B (B represents an MIC between 1 and 16 μg/mL inclusive) | 100 to 1000 nM | C (C represents an MIC of <1 μg/mL) | 100 to 1000 nM | C (C represents an MIC of <1 μg/mL) | C (C represents an MIC of <1 μg/mL) | < 100 nM | B (B represents an MIC between 1 and 16 μg/mL inclusive) |  |  |  |  |  |  |
| C[C@@H](O)[C@H]1C(=O)N2C(C(=O)O)=C(S[C@@H]3CN[C@H](C(=O)N(C)C)C3)[C@H](C)[C@H]12 [Meropenem, meropenem, reference compound] |  |  |  |  |  |  |  |  |  |  |  |  | 128 µg/mL | 16 µg/mL | 64 µg/mL | > 128 µg/mL |
